Test results: patent US12358904B2, “Inhibitors of TYK2” (Atomwise Inc., priority 2023, dated 2025)

Key:
[1] = biological target: T1, TYK2-JH2 (Homo sapiens, UniProt P29597); assay: TYK2-JH2 HTRF binding assay (ligand efficiency); settings: calculated from IC50 of the TYK-JH2 binding assay (Equation 1)
T1 construct: TYK JH2 enzyme mix (ChemPartnec CP20210818A-BV); purchased ChemPartner CP20210818A-BV
Summary of the method: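 His-tagged TYK2 JH2 (0.5 nM) preincubated 10 min at RT with compound (0.1–0.000005 μM) in 20 mM HEPES pH 7.5, 10 mM MgCl2, 0.01% Triton X-100, 1 mM DTT; then 35 nM tracer plus anti-6HIS Tb cryptate, 60 min RT. TR-FRET read (Ex340/Em495/520); IC50 converted to ligand efficiency.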

[2] = tested on: IL-12/pSTAT4; assay: IL-12 induced pSTAT4 assay in NK-92 cells; type: cell-based; settings: Homo sapiens, NK92, IL-12 stimulation, read-out: Cellular potency (IL-12/pSTAT4)
Summary of the method: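 Overnight-starved NK-92 cells (20K/well) pre-incubated with compounds (1000 to 0.05 nM final) 30 min at 37 °C, then stimulated with IL-12 (10 ng/ml) for 30 min at 37 °C. Lysates assayed for pSTAT4 (Tyr693) by MSD electrochemiluminescence.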

[3] = tested on: IL-6/pSTAT3; assay: IL-6 induced pSTAT3 assay in TF-1 cells; type: cell-based; settings: Homo sapiens, read-out: Cellular selectivity (IL-6/pSTAT3)
Method: The following example describes the IL-6 induced pSTAT3 assay used to determine the cellular selectivity (IL-6/pSTAT3) of the TYK2 inhibitors.
TF-1 (ATCC®, CRL-2003™) cells were cultured in RPMI 1640 Medium, with GlutaMAX™ Supplement, HEPES for Cell Culture (Life Technologies, 72400047), 10% Fetal Bovine Serum (Life Technologies, 26400044), 2 ng/mL human recombinant GM-CSF (Life Technologies, PHC2013), 1 mM Sodium pyruvate (Life Technologies, 11360039), 1% MEM NEAA (Life Technologies, 11140-035), 1% Penicillin/Streptomycin (Life Technologies, 15140-122).
TF-1 (70×10^6) cells were starved overnight in T01 50 flasks (Opti-MEM™ I Reduced Serum Medium, no phenol red (Life Technologies, 11058-021), 1 mM Na pyruvate (Life Technologies, 11360039), 1% MEM NEAA (Life Technologies, 11140-035), and 1% Penicillin/Streptomycin (Life Technologies, 15140-122)) then seeded into 96-well TPP plates (150 000 cell/well) and incubated with test compounds (Final Concentration [nM] 10000-0.05) for 30 minutes at 37° C. […] Stimulation was terminated by addition of lysis buffer (MSD K150SVD) and pSTAT3 detection was measured with Phospho-STAT3 (Tyr705) Kit MSD K150SVD)) according to manufacturer's instruction. Briefly, cell lysates were added to pre-blocked plates, sealed, and shake for 1 hour at room temperature. Plates were then washed and incubated with detection antibody for 1 hour at room temperature. After washing, Read Buffer was added, and plates were read on MSD instrument (Model 1300 MSD Quickplex SQ 120).

[4] = tested on: GM-CSF/pSTAT5; assay: GM-CSF induced pSTAT5 assay in CellSensor irf1-bla TF-1 cells; type: cell-based; settings: Homo sapiens, GM-CSF 1 ng/mL, read-out: Cellular selectivity (GM-CSF induced pSTAT5)
Method: The CellSensor irf1-bla TF-1 cell line (LifeTechnologies, K1657) was cultured in RPMI 1640 Medium (Invitrogen 72400-047), 10% Fetal Bovine Serum (Invitrogen, 26400044), 1 mM Sodium pyruvate (Life Technologies, 11360039), 1% MEM NEAA (Life Technologies, 11140-035), 2 ng/ml of human recombinant GM-CSF (Fisher, PHC2015), 1% Penicillin/Streptomycin (Life Technologies, 15140-122) and 5 μg/ml of Blasticidin (ThermoFisher, A1113903).
The cell line was seeded in a T75 flask at 13×10^6 cells/50 mL in starvation medium (Opti-MEM™ I Reduced Serum Medium, no phenol red (Life Technologies, 11058-021), 1 mM Na pyruvate (Life Technologies, 11360039), 1% MEM NEAA (Life Technologies, 11140-035), and 1% Penicillin/Streptomycin (Life Technologies, 15140-122)) for 16 hours at 37° C. under 5% CO2 the day before the assay.
For the assay, CellSensor irf1-bla TF-1 cells were seeded at 30 000 cells/32 μL (starvation medium)/well in a 384-well plate.
Compounds were added on the cells in 4 μL (starvation medium)/well at 10× the final concentration. They were incubated for 30 minutes at 37° C.
Human recombinant carrier-free GM-CSF (ThermoFisher, ref PHC2015) was added to the wells in 4 μL (starvation medium)/well at 10×. The final concentration was 1 ng/mL. Control wells without GM-CSF treatment were added. Plates were incubated for 5 hours at 37° C.
6× LiveBlazer-FRET substrate (Invitrogen, K1085) was added to the wells at 8 μL/well. The substrate was prepared shortly before use by mixing 6 μL of solution A and 60 μL of solution B to 934 μL of solution C. Plates were incubated for 2.5 hours at room temperature in the dark. The plates were read on an Envision (Perkin Elmer) with an excitation at a wavelength of 409 nm and two wavelengths for the emission 520 nm and 450 nm. The ratio between the […] emission was used to calculate the IC50s.
The IC50 for the inhibition of pSTAT5 was calculated with the Xlfit software using the 4 Parameter Logistic Model or Sigmoidal Dose-Response Model (model 205).

T1 sequence (P29597 589-875 limits assumed): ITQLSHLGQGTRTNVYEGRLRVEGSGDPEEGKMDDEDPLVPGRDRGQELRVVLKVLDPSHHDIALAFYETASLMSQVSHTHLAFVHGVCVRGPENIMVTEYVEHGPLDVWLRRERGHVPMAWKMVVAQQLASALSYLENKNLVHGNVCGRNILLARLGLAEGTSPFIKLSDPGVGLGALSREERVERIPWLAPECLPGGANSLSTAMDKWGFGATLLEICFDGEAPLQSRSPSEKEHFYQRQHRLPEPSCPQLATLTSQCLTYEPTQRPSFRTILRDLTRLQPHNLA

SMILES	Ligand Efficiency [1]	IC50 [2] [µM]	IC50 [3] [µM]	IC50 [4] [µM]
C[C@H]1CN(C2CC2)CCN1c1ccc(Nc2cc(Nc3ncccc3S(C)(=O)=O)ncn2)nc1 [Compound 8, (S)—N^4-(5-(4-cyclopropyl-2-methylpiperazin-1-yl)85yridine-2-yl)-N^6-(3-(methylsulfonyl)85yridine-2-yl)pyrimidine-4,6-diamine]	††† (†††: >0.39)	< 0.1	4 to 10	< 4
Cc1ccnc(Nc2cc(Nc3ccccc3S(C)(=O)=O)ncn2)c1 [Compound 44, N^4-(4-methylpyridin-2-yl)-N^6-(2-(methylsulfonyl)phenyl) pyrimidine-4,6-diamine]	††† (†††: >0.39)	< 0.1	> 10	> 10
CC(NC1CCOC1)c1ccc(Nc2cc(Nc3ccccc3S(C)(=O)=O)ncn2)nc1 (stereo not drawn) [Compound 26, N^4-(2-(methylsulfonyl)phenyl)-N^6-(5-(1-(tetrahydrofuran-3-ylamino)ethyl)106yridine-2-yl)pyrimidine-4,6-diamine]	†† (††: 0.37-0.39)	< 0.1	> 10	> 10
Cc1cc(Nc2cc(Nc3ncccc3S(C)(=O)=O)ncn2)ncc1NC1(C)COC1 [Compound 23, N^4-(4-methyl-5-((3-methyloxetan-3-yl)amino)103yridine-2-yl)-N^6-(3-(methylsulfonyl)103yridine-2-yl)pyrimidine-4,6-diamine]	††† (†††: >0.39)	< 0.1	> 10	> 10
Cc1ccnc(Nc2cc(Nc3ccccc3C(N)=O)ncn2)c1 [Compound 45, 2-((6-((4-methylpyridin-2-yl)amino)pyrimidin-4-yl)amino) benzamide]	††† (†††: >0.39)	< 0.1	< 4	< 4
Cc1cccc(Nc2cc(Nc3ccccc3C(N)=O)ncn2)n1 [Compound 46]	††† (†††: >0.39)	< 0.1	< 4	< 4
C[C@@H](c1ccc(Nc2cc(Nc3ncccc3S(C)(=O)=O)ncn2)nc1C(F)(F)F)N1CC2(COC2)C1 [Compound 11, I-N^4-(5-(1-(2-oxa-6-azaspiro[3.3]heptan-6-yl)ethyl)-6-(trifluoromethyl)90yridine-2-yl)-N^6-(3-(methylsulfonyl)90yridine-2-yl)pyrimidine-4,6-diamine]	†† (††: 0.37-0.39)	< 0.1	< 4	> 10
CC(c1ccc(Nc2cc(Nc3ncccc3S(C)(=O)=O)ncn2)nc1)N1CC(F)C1 (stereo not drawn) [Compound 22, N^4-(5-(1-(3-fluoroazetidin-1-yl)ethyl)102yridine-2-yl)-N^6-(3-(methylsulfonyl)102yridine-2-yl)pyrimidine-4,6-diamine]	††† (†††: >0.39)	< 0.1	4 to 10	> 10
Cc1cccc(Nc2cc(Nc3ccccc3NS(C)(=O)=O)ncn2)n1 [Compound 53, N-(2-(6-(6-methylpyridin-2-ylamino)pyrimidin-4-ylamino)phenyl) methanesulfonamide]	††† (†††: >0.39)	0.1 to 1	< 4	4 to 10
CC(C)[C@@H](c1ccc(Nc2cc(Nc3ncccc3S(C)(=O)=O)ncn2)nc1)N1CC2(COC2)C1 [Compound 13, (S)—N^4-(5-(2-methyl-1-(2-oxa-6-azaspiro[3.3]heptan-6-yl)propyl)pyridine-2-yl)-N^6-(3-(methylsulfonyl)93yridine-2-yl)pyrimidine-4,6-diamine]	†† (††: 0.37-0.39)	< 0.1	4 to 10	> 10
CS(=O)(=O)c1ccccc1Nc1cc(Nc2ccc(CNC3CCOC3)cn2)ncn1 (stereo not drawn) [Compound 28, N^4-(2-(methylsulfonyl)phenyl)-N^6-(5-((tetrahydrofuran-3-ylamino)methyl)110yridine-2-yl)pyrimidine-4,6-diamine]	†† (††: 0.37-0.39)	< 0.1	> 10	> 10
Cc1cnnc(Nc2cc(Nc3ccccc3C(N)=O)ncn2)c1 [Compound 47, 2-((6-((5-methylpyridazin-3-yl)amino)pyrimidin-4-yl)amino) benzamide]	††† (†††: >0.39)	< 0.1	< 4	> 10
Cc1nc(Nc2cc(Nc3ncccc3S(C)(=O)=O)ncn2)ccc1[C@H](C)N1CC2(COC2)C1 [Compound 12, N^4-(5-(1-(2-oxa-6-azaspiro[3.3]heptan-6-yl)ethyl)-6-methylpyridin-2-yl)-N^6-(3-(methylsulfonyl)92yridine-2-yl)pyrimidine-4,6-diamine]	††† (†††: >0.39)	< 0.1	< 4	< 4
CC(C)(NC1COC1)c1ccc(Nc2cc(Nc3ccccc3S(C)(=O)=O)ncn2)nc1 [Compound 39, N^4-(2-(methylsulfonyl)phenyl)-N^6-(5-(2-(oxetan-3-ylamino)propan-2-yl)127yridine-2-yl)pyrimidine-4,6-diamine]	†† (††: 0.37-0.39)	< 0.1	> 10	> 10
CC(c1ccc(Nc2cc(Nc3ncccc3S(C)(=O)=O)ncn2)nc1)N1CC2(CC(F)C2)C1 (stereo in doubt) [Compound 10, N^4-(5-((1R)-1-(6-fluoro-2-azaspiro[3.3]heptan-2-yl)ethyl) 87yridine-2-yl)-N^6-(3-(methylsulfonyl)87yridine-2-yl)pyrimidine-4,6-diamine]	††† (†††: >0.39)	< 0.1	4 to 10	> 10
